Six molecules from patent US7670836B2, “Antimicrobial peptide isolated from Penaeus monodon” (priority 2003, dated 2010) can be followed below.

Converted amounts (≈) assume the structure as drawn. Like-named read-outs stand apart in the source and are kept apart here. No end group written: not given here.

Assay [1] has as its system Salmonella choleraesuis Strand 75.
Experimental: (§3) The minimal inhibitory concentration (MIC) and minimal bactericidal concentration (MBC) were obtained to determine bacteriostatic and bactericidal activities, respectively, for each strain of the bacteria listed above. […] The lowest concentration which inhibited bacterial growth was deemed the MIC. The MBC was determined by spreading 100 μl from each tube of the MIC on an LB or TSA plate and incubating overnight.
For assay [2], the system named is Salmonella choleraesuis Strand 74.
Experimental: as §3
Another assay relates to Fusarium pisi. The assay is described as follows: MIC and MBC analysis against the filamentous fungus Fusarium pisi. The format is cell-based. On the procedure: (§1) Monodoncin was tested for its antibacterial activities against various Gram (−) bacteria, including E. coli, Vibrio harveyi, Vibrio alginolyticus, and Salmonella cholesaesuis, various Gram (+) bacteria, such as Aerococcus viridian, and filamentous fungi, such as Fusarium pisi.

In assay [3] the test system is E. coli. The experiment in a line: microbe, parasite or virus in culture. On the procedure: as §1
(§2) The bacteria were cultured under conventional methods. For example, E. coli strain was cultured in LB, 37° C. The marine microorganisms that are pathogenic for shrimp, such as Vibrio harveyi and Vibrio alginolyticus, were cultured in trypticase soy broth/agar (1.5% NaCl), 25° C.

Assay [4] relates to Vibrio harveyi. The experiment in a line: microbe, parasite or virus in culture. The method, then: as §1, §2
In another assay the test system is Vibrio alginolyticus. The experiment in a line: microbe, parasite or virus in culture. On the procedure:
as §1, §2

A further assay has as its system Aerococcus viridian. The experiment in a line: Bacteriostatic (MIC) and bactericidal (MBC) analysis against Aerococcus viridian. It counts as cell-based. On the procedure: as §1
The next assay concerns Fusarium oxysporum. The experiment in a line: MIC and MBC analysis against the filamentous fungus Fusarium oxysporum. It counts as cell-based.
Assay [5] has as its system E. coli. The experiment in a line: SEM analysis of interaction of monodoncin with E. coli. It counts as cell-based, Escherichia coli. As to conditions: monodoncin 10 μM, 12 hrs of treatment. On the procedure:
Monodoncin at […] was used to treat E. Coli and Vibrios, and the pathogens prior to and after the treatment were monitored under Scanning Electron Microscope (SEM) and Atomic Force Microscope (AFM).
Scanning electron microscopy (SEM) was conducted by incubating […] of E. coli (109 C.F.U./ml) with or without 50 μl monodoncin (10000 μM) at 37° C. for 1 h, 3 h, 6 h, and 12 h. Three milliliters of each of the bacterial suspensions (at various time frames) were fixed by adding 1 ml of 6% glutaraldehyde in 0.1 M sodium cacodylate trihydrate buffer (pH 6.8). After fixation for 1 h at […], the bacterial suspensions were pelleted, the used fixative was removed, 2 ml of the new fixative were added, and the bacteria were incubated for 5 min at […] Two additional 5-min fixations were conducted, followed by addition of 2 ml of 1% osmium tetroxide in 0.1 M cacodylate buffer, and the fixation was allowed to proceed for 30 min at […] The osmium tetroxide was removed, and the bacterial suspensions were washed in 2 ml of 0.1 M cacodylate buffer. […] The SEM mounts were then sputter coated with gold (Edwards S150A sputter coater; Edwards High Vacuum, Crawley, West Sussex, England) and analyzed on a Hitachi H300-3010 scanning image accessory electron microscope.

Assay [6] deals with Vibrio harveyi. The assay is described as follows: Mortality of tiger shrimp after Vibrio harveyi challenge (FIG. 5). The format is in vivo, Penaeus monodon. The method, then:
(-⋄-): PBS control (negative control); (-▪-): Vibrio harveyi challenge (positive control); (-▴-): cecropin+Vibrio harveyi (non-monodoncin treatment group); (-●-): monodoncin+Vibrio harveyi (monodoncin treatment group).
Vibrio harveyi is a gram-negative marine bacterium that is in the natural living environment of the tiger shrimp. A suspension of the microorganism […] containing 10^5 cells was used for each tiger shrimp. The suspension was injected into the shrimp abdominal muscle. Hemocytes were collected as Example 1 at different times (from 0 to 72 hours) post-injection. Unchallenged animals were used as controls.

For `CC1(C)S[C@@H]2[C@H](NC(=O)[C@H](N)c3ccc(O)cc3)C(=O)N2[C@H]1C(=O)O` [Amoxicillin, amoxicillin], the MIC was over 64 µg in assay [1] (Strand 75, amoxicillin alone) and over 64 µg in assay [2] (Strand 74, amoxicillin alone).
For the molecule `CN(C)[C@@H]1C(O)=C(C(N)=O)C(=O)[C@@]2(O)C(O)=C3C(=O)c4c(O)cccc4[C@@](C)(O)[C@H]3C[C@@H]12` [Tetracycline, tetracycline], the MBC against Fusarium pisi (Fusarium vanettenii) is over 500 µM; in the assay on E. coli [3] (Escherichia coli) it was 403 µM (≈ 179 µg/mL); against Vibrio harveyi [4] (Vibrio harveyi), 403 µM (≈ 179 µg/mL); in the assay with Vibrio alginolyticus (Vibrio alginolyticus), over 202 µM; against Aerococcus viridian, 300 µM (≈ 133 µg/mL); against Fusarium oxysporum, 500 µM (≈ 222 µg/mL). The MIC with Fusarium pisi (Fusarium vanettenii) came out at 300 µM (≈ 133 µg/mL); with Vibrio harveyi [4] (Vibrio harveyi), 6.3 µM (≈ 2.8 µg/mL); with Vibrio alginolyticus (Vibrio alginolyticus) it was 25.2 µM (≈ 11.2 µg/mL); in the assay with Aerococcus viridian it was 30 µM (≈ 13.3 µg/mL); in the assay on Fusarium oxysporum, 500 µM (≈ 222 µg/mL).
In [1] (Strand 75, peptide alone), Cecropin returned an MBC of over 31.2 µg/mL and an MIC of 31.2 µg/mL. For the same molecule, in [2] (Strand 74, peptide alone), the MBC was found to be 31.2 µg/mL and the MIC came to 16.5 µg/mL.
Consider “GWGSFFKKAAHVGKHVGKAALTHYL-NH2 (C-terminus assumed) [Pleurocidin, pleurocidin]”, for which the MBC with E. coli [3] is 500 µM; against Vibrio harveyi [4], 200 µM; with Vibrio alginolyticus, over 500 µM. The values for the MIC against E. coli [3], against Vibrio harveyi [4] and in the assay with Vibrio alginolyticus were 450 µM, 200 µM and 500 µM, respectively.
As to “QGYQGGYTRPFPRPPYGGGYHPVPVCTSCHRLSPLQARACCRQLGRCCDAKQTYG (cysteines drawn unpaired) [Monodoncin]”, the “number of bacteria in the culture” value in the assay on E. coli [5] is listed as “significantly reduced”. Also, in the assay on Vibrio harveyi [6], the “mortality rate relative to that in the untreated group” value is 40% and the “reduction of tiger shrimp mortality” value was “at least 40%”.
magainins: the MBC came out at 1 µM against Fusarium pisi; 70 µM against E. coli [3] (E. coli); 30 µM with Vibrio harveyi [4] (Vibrio harveyi); 300 µM against Vibrio alginolyticus (Vibrio alginolyticus); 5 µM in the assay with Aerococcus viridian; 1 µM in the assay with Fusarium oxysporum. Moreover, the MIC in the assay with Fusarium pisi was determined as 1 µM; in the assay with E. coli [3] (E. coli) it was 40 µM; with Vibrio harveyi [4] (Vibrio harveyi), 30 µM; against Vibrio alginolyticus (Vibrio alginolyticus), 150 µM; in the assay on Aerococcus viridian, 1 µM; with Fusarium oxysporum it was 1 µM.
